Assay results reported in patent publication US8129424B2, “Indole derivatives as histamine 3 receptor inhibitors for the treatment of cognitive and sleep disorders, obesity and other CNS disorders” (Athersys, Inc., priority 2005, dated 2012).

biological target: T1, human histamine H3 receptor (Homo sapiens, UniProt Q9Y5N1); assay: Radioligand competition binding assay with [125I]iodoproxyfan on RAGE-H3 cell membranes; settings: [125I]iodoproxyfan competition binding, apparent Ki by Cheng-Prussof equation
T1 construct: expressed in transfected cells; host or cells: HT1080-Gqαi5 cells (human), pFG8-HH3 RAGE vector integrated; methotrexate-amplified clone RAGE-H3
T1 sequence (Q9Y5N1 whole entry): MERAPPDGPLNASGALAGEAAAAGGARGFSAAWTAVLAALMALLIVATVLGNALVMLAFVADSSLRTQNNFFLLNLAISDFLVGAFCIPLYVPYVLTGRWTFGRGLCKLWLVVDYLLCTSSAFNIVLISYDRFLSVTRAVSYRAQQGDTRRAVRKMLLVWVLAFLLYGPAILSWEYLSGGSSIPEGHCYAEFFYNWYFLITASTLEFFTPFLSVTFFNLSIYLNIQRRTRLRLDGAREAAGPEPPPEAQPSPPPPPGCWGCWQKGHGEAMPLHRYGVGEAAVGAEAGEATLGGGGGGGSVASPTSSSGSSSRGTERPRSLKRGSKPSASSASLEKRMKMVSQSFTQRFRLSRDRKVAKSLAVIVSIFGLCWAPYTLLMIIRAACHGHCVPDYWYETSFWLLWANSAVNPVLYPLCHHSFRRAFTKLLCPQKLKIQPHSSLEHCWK
Experimental: Representative compounds of the present invention that were prepared by the procedures of Examples 1-41 were evaluated in binding assays against cells expressing human H3 receptor by the following procedure.
The human histamine H3 receptor was stably expressed in HT1080 cells containing the chimeric G-protein, Gq[…]i5 (Coward et al., Anal Biochem 1999; 270:242-8). HT1080-Gqαi5 cells were grown in alpha-modified MEM containing 10% fetal bovine serum and 7 μg/ml blasticidin at 37° C. in 5% CO2/95% atmosphere. Cells (4.8×10^9) were irradiated with 50 rads from a ^137Cs source and the pFG8-HH3 RAGE (Random Activation of Gene Expression; see Harrington et al., Nature Biotechnology. 2001; 19:440-45) vector was subsequently integrated into the cells via electroporation (250V, 600 μF, 50Ω). The RAGE vector pFG8-HH3 contained cDNA sequence coding for the first exon (83 amino acids) of human H3 receptor. After electroporation, cells were plated in T75 flasks and grown in alpha-modified MEM. The culture medium was replaced 48 hours after electroporation with alpha-modified MEM, 10% fetal bovine serum, 500 μg/ml hygromycin B and 3 μg/ml puromycin. Medium was replaced every four days during cell expansion. To identify RAGE activated cells expressing the H3 receptor, pools of approximately 10,000 colonies (5×10^7-1.5×10^8 cells total) were screened by PCR for the desired gene product (using primers specific to the RAGE vector and exon 2 of the H3 receptor). […] Positive 100 cells/well pools were identified by PCR, confirmed by sequencing, and subsequently subcloned to 0.8 cells/well. Once clones expressing the H3 receptor were identified by PCR analysis, assays (FLIPR or radioligand binding) were performed to confirm that the activated gene produced functional protein. The protein expression in the initial clones obtained from the RAGE library was increased by growth in the presence of methotrexate. Since the integrated RAGE vector contains the DHFR gene, such treatment selects for cells that have amplified the genetic locus containing the RAGE insert. Subclones obtained after methotrexate amplification were tested for functional activity in FLIPR assays to identify the clone that was most suitable for HTS. The final HT1080-Gqαi5 RAGE clone (RAGE-H3) expressing the human histamine H3 receptor was grown in alpha-modified MEM containing 10% fetal bovine serum, 3 μg/ml puromycin, 500 μg/ml hygromycin B, 3.2 μM methotrexate at 37° C. in 5% CO2/95% atmosphere.
RAGE-H3 cells (10^9) were washed twice with cold PBS, scraped off the plates, and centrifuged at 1000×g for 5 minutes. Cells were resuspended in ice-cold 10 mM Tris HCl, pH 7.4, containing 5 mM EDTA and protease inhibitor cocktail tablets (Roche Molecular Biochemicals). After incubating on ice for 10 minutes, the cells were homogenized with a dounce homogenizer or a polytron tissue grinder, and centrifuged at 1000×g for 10 minutes at 4° C. The resulting supernatant was centrifuged at 32,000×g for 30 minutes at 4° C. The membrane pellets were resuspended in 50 mM Tris HCl, pH 7.4, and stored at −80° C. until use. Protein concentration was determined by the Bradford method (Bio-Rad Laboratories, CA).
Binding assays were carried out in 96-well polypropylene plates in 50 mM Tris HCl, pH 7.4, containing 1 mM EDTA. Reaction mixtures contained 100 μl of membrane suspension, 50 of 4% DMSO, and 50 μl of increasing amounts of [^125I]iodoproxyfan (final concentration 0.0005-1.8 nM for human H3 receptor saturation binding assay). Nonspecific binding was defined by adding 10 μM clobenpropit to the reaction mixtures. Competition binding assays were performed in a reaction mixture containing 100 μl of membrane suspension (˜20 μg of protein/well), 50 μl of [^125I]iodoproxyfan (final concentration of ˜0.15 nM) and 50 μl of test compound. Compounds were dissolved in DMSO and then diluted with 4% DMSO; the final maximal DMSO concentration in the binding assays was 1%. […]

SMILES	Ki
COCc1cc2cc(OC)ccc2n1-c1ccc(OCCCN2CCCC2)cc1 [Example 42, 5-Methoxy-2-methoxymethyl-1-[4-(3-pyrrolidin-1-ylpropoxy)phenyl]-1H-indole]	< 10 nM
COCCc1cc2ccccc2n1-c1ccc(OCCCN2CCCC2)cc1 [Example 40, 2-(2-Methoxyethyl)-1-[4-(3-pyrrolidin-1-ylpropoxy)phenyl]-1H-indole]	< 10 nM
c1ccc2c(c1)cc(C1CC1)n2C1CCC(OCCCN2CCCC2)CC1 (single isomer, unassigned) [Example 39, 2-Cyclopropyl-1-[4-(3-pyrrolidin-1-ylpropoxy)cyclohexyl]-1H-indole]	< 10 nM
C[C@@H]1CCCN1CCCOc1ccc(-n2c(C(=O)NC3CCC3)cc3ccccc32)cc1 [Example 19, 1-{4-[3-(2R-Methylpyrrolidin-1-yl)propoxy]phenyl}-1H-indole-2-carboxylic acid cyclobutylamide]	< 10 nM
COc1ccc2c(c1)cc(CO)n2-c1ccc(OCCCN2CCCC2)cc1 [Example 36, {5-Methoxy-1-[4-(3-pyrrolidin-1-ylpropoxy)phenyl]-1H-indol-2-yl}methanol]	< 10 nM
CCCc1cc2ccccc2n1-c1ccc(OCCCN2CCCC2)cc1 [Example 38, 2-Propyl-1-[4-(3-pyrrolidin-1-ylpropoxy)phenyl]-1H-indole]	< 10 nM
C[C@@H]1CCCN1CCCOc1ccc(-n2c(C(=O)N3CCCCC3)cc3ccccc32)cc1 [Example 24, (1-{4-[3-(2R-Methylpyrrolidin-1-yl)propoxy]phenyl}-1H-indol-2-yl)piperidin-1-ylmethanone]	< 10 nM
Cc1cc2ccccc2n1-c1ccc(OCCCN2CCCCC2)cc1 [Example 2, 2-Methyl-1-[4-(3-piperidin-1-ylpropoxy)phenyl]-1H-indole]	< 10 nM
CCCCNC(=O)c1cc2ccccc2n1-c1ccc(OCCCN2CCC[C@H]2C)cc1 [Example 26, 1-{4-[3-(2R-Methylpyrrolidin-1-yl)propoxy]phenyl}-1H-indole-2-carboxylic acid butylamide]	< 10 nM
C[C@@H]1CCCN1CCCOc1ccc(-n2c(C(=O)N3CCCC3)cc3ccccc32)cc1 [Example 23, (1-{4-[3-(2R-Methylpyrrolidin-1-yl)propoxy]phenyl}-1H-indol-2-yl)pyrrolidin-1-ylmethanone]	< 10 nM
Clc1ccc2ccn(-c3ccc(OCCCN4CCCC4)cc3)c2c1 [Example 12, 6-Chloro-1-[4-(3-pyrrolidin-1-ylpropoxy)phenyl]-1H-indole]	< 100 nM
CCOC(=O)c1cc2ccccc2n1-c1ccc(OCCCN2CCCC2)cc1 [Example 30, 1-[4-(3-Pyrrolidin-1-ylpropoxy)phenyl]-1H-indole-2-carboxylic acid ethyl ester]	< 10 nM
OCCc1cc2ccccc2n1-c1ccc(OCCCN2CCCC2)cc1 [Example 41, 2-{1-[4-(3-Pyrrolidin-1-ylpropoxy)phenyl]-1H-indol-2-yl}ethanol]	< 10 nM
Cc1cc2ccccc2n1-c1ccc(OCCCN2CCC[C@H]2C)cc1 [Example 3, 2-Methyl-1-{4-[3-(2R-methylpyrrolidin-1-yl)propoxy]phenyl}-1H-indole]	< 10 nM
COCc1cc2cc(F)ccc2n1-c1ccc(OCCCN2CCCC2)cc1 [Example 44, 5-Fluoro-2-methoxymethyl-1-[4-(3-pyrrolidin-1-ylpropoxy)phenyl]-1H-indole]	< 10 nM
Cc1ccc2c(c1)cc(C)n2-c1ccc(OCCCN2CCCC2)cc1 [Example 11, 2,5-Dimethyl-1-[4-(3-pyrrolidin-1-ylpropoxy)phenyl]-1H-indole]	< 100 nM

SMILES	Ki
C[C@@H]1CCCN1CCCOc1ccc(-n2c(C(=O)NC3CCCCC3)cc3ccccc32)cc1 [Example 21, 1-{4-[3-(2R-Methylpyrrolidin-1-yl)propoxy]phenyl}-1H-indole-2-carboxylic acid cyclohexylamide]	< 100 nM
C[C@@H]1CCCN1CCCOc1ccc(-n2c(C(=O)NCC3CCCCC3)cc3ccccc32)cc1 [Example 28, 1-{4-[3-(2R-Methylpyrrolidin-1-yl)propoxy]phenyl}-1H-indole-2-carboxylic acid cyclohexylmethylamide]	< 10 nM
C[C@@H]1CCCN1CCCOc1ccc(-n2c(C(=O)N3CCOCC3)cc3ccccc32)cc1 [Example 25, (1-{4-[3-(2R-Methylpyrrolidin-1-yl)propoxy]phenyl}-1H-indol-2-yl)morpholin-4-ylmethanone]	< 10 nM
COc1ccc2c(c1)cc(C(=O)NC1CCCCC1)n2-c1ccc(OCCCN2CCC[C@H]2C)cc1 [Example 29, 5-Methoxy-1-{4-[3-(2R-methylpyrrolidin-1-yl)propoxy]phenyl}-1H-indole-2-carboxylic acid cyclohexylamide]	< 10 nM
COc1ccc2c(c1)cc(C(=O)N1CCCC1)n2-c1ccc(OCCCN2CCC[C@H]2C)cc1 [Example 18, (5-Methoxy-1-{4-[3-(2R-methylpyrrolidin-1-yl)propoxy]phenyl}-1H-indol-2-yl)pyrrolidin-1-ylmethanone]	< 10 nM
C[C@@H]1CCCN1CCCOc1ccc(-n2c(C(=O)NC3CCCCCC3)cc3ccccc32)cc1 [Example 22, 1-{4-[3-(2R-Methylpyrrolidin-1-yl)propoxy]phenyl}-1H-indole-2-carboxylic acid cycloheptylamide]	< 100 nM
OCc1cc2ccccc2n1-c1ccc(OCCCN2CCCC2)cc1 [Example 31, {1-[4-(3-Pyrrolidin-1-ylpropoxy)phenyl]-1H-indol-2-yl}methanol]	< 10 nM
c1ccc2c(c1)cc(COC1CCCCC1)n2-c1ccc(OCCCN2CCCC2)cc1 [Example 33, 2-Cyclohexyloxymethyl-1-[4-(3-pyrrolidin-1-ylpropoxy)phenyl]-1H-indole]	< 10 nM
COCc1cc2ccccc2n1-c1ccc(OCCCN2CCCC2)cc1 [Example 32, 2-Methoxymethyl-1-[4-(3-pyrrolidin-1-ylpropoxy)phenyl]-1H-indole]	< 10 nM
CC(C)OCc1cc2ccccc2n1-c1ccc(OCCCN2CCCC2)cc1 [Example 34, 2-Isopropoxymethyl-1-[4-(3-pyrrolidin-1-ylpropoxy)phenyl]-1H-indole]	< 10 nM
Cc1cc2cc(F)ccc2n1-c1ccc(OCCCN2CCCC2)cc1 [Example 13, 2-Methyl-5-fluoro-1-[4-(3-pyrrolidin-1-ylpropoxy)phenyl]-1H-indole]	< 10 nM
Cc1cc2ccccc2n1-c1ccc(OCCCN2CCCC2)cc1 [Example 1, 2-Methyl-1-[4-(3-pyrrolidin-1-ylpropoxy)phenyl]-1H-indole]	< 10 nM
COCc1cc2cc(C)ccc2n1-c1ccc(OCCCN2CCCC2)cc1 [Example 43, 5-Methyl-2-methoxymethyl-1-[4-(3-pyrrolidin-1-ylpropoxy)phenyl]-1H-indole]	< 10 nM
C[C@@H]1CCCN1CCCOc1ccc(-n2c(C(=O)NC3CCCC3)cc3ccccc32)cc1 [Example 20, 1-{4-[3-(2R-Methylpyrrolidin-1-yl)propoxy]phenyl}-1H-indole-2-carboxylic acid cyclopentylamide]	< 10 nM
c1ccc2c(c1)cc(COC1CCCC1)n2-c1ccc(OCCCN2CCCC2)cc1 [Example 35, 2-Cyclopentyloxymethyl-1-[4-(3-pyrrolidin-1-ylpropoxy)phenyl]-1H-indole]	< 10 nM
CC(C)CNC(=O)c1cc2ccccc2n1-c1ccc(OCCCN2CCC[C@H]2C)cc1 [Example 27, 1-{4-[3-(2R-Methylpyrrolidin-1-yl)propoxy]phenyl}-1H-indole-2-carboxylic acid isobutylamide]	< 10 nM
